Counter-ions that a name gives are not always drawn.
Key:
Assay type in all cases: biochemical
[1] = molecular target: human JAK3 catalytic kinase (JH1) domain (Homo sapiens (Human), UniProt P52333); test: ADP-Glo Kinase Assay, recombinant JAK3 catalytic kinase (JH1) domain; settings: recombinant JH1 domain 0.3 nM, 4 μM ATP, JAK3-974 peptide, mean, read-out: JAK3 biochem IC50 (nM) Mean
Description: (§1) Compounds of the disclosure were assessed for their ability to inhibit TYK2, JAK1, JAK2, and JAK3 activity. The inhibitory properties of the compounds of the disclosure described herein can be evidenced by testing in any one of the following protocols.
(§2) The kinase activity of recombinantly generated catalytic kinase (also known as JH1) domain of human JAK1, JAK2, JAK3 and TYK2 were evaluated in a plate-based assay using the ADP-Glo™ Kinase Assay platform. Specifically, 4 nM of recombinant JAK1 kinase domain is used to phosphorylate 50 μM of a JAK3-342 (sequence ALVDGYFRLTT) peptide in the presence of 35 μM ATP. Catalytic activities of recombinant JAK2, JAK3 and TYK2 kinase domain (0.2, 0.3 and 2 nM, respectively) are evaluated by the phosphorylation status of the JAK3-974 (50 μM; sequence LPLDKDYYVVR) peptide with the addition of ATP (15, 4 and 10 μM, respectively). The reactions proceed for 100 minutes and the catalytic activity is quantified by first depleting the unused ATP, converting the hydrolyzed ADP into ATP to generate luminescence in a luciferase reaction; which is the basis of the ADP-Glo platform. Compounds are tested at either 10 μM or 1 μM top concentration, 11 points of 3-fold dilution. The data is normalized and the percent activity versus log concentration of compound is fitted with a 4-parameter logistic model to generate a curve and an IC50 value.

[2] = molecular target: human JAK2 catalytic kinase (JH1) domain (Homo sapiens (Human), UniProt O60674); test: ADP-Glo Kinase Assay, recombinant JAK2 catalytic kinase (JH1) domain; settings: recombinant JH1 domain 0.2 nM, 15 μM ATP, JAK3-974 peptide, mean, read-out: JAK2 biochem IC50 (nM) Mean
human JAK2 catalytic kinase (JH1) domain, sequence (O60674 849-1124): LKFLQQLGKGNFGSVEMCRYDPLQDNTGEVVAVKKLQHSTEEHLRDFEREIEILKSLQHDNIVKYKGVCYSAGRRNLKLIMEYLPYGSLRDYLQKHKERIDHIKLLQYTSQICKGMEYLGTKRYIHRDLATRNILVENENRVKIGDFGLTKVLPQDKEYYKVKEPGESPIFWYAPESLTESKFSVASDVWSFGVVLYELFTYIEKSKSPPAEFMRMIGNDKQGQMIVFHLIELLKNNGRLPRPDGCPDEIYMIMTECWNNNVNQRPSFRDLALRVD
Description: as §1, §2

[3] = molecular target: human TYK2 catalytic kinase (JH1) domain (Homo sapiens (Human), UniProt P29597); test: ADP-Glo Kinase Assay, recombinant TYK2 catalytic kinase (JH1) domain; settings: recombinant JH1 domain 2 nM, 10 μM ATP, JAK3-974 peptide, mean, read-out: TYK2 biochem IC50 (nM) Mean
human TYK2 catalytic kinase (JH1) domain, sequence (P29597 897-1176): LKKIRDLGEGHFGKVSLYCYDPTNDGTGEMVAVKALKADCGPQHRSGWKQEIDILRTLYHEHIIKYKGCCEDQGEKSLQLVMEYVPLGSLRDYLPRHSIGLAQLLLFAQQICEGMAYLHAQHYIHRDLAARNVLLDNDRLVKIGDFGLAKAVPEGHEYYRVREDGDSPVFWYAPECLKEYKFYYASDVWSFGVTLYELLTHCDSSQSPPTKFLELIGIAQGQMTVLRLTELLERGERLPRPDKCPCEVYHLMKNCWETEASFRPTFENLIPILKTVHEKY
Description: as §1, §2

[4] = molecular target: human JAK1 catalytic kinase (JH1) domain (Homo sapiens (Human), UniProt P23458); test: ADP-Glo Kinase Assay, recombinant JAK1 catalytic kinase (JH1) domain; settings: recombinant JH1 domain 4 nM, 35 μM ATP, JAK3-342 peptide, mean, read-out: JAK1 biochem IC50 (nM) Mean
human JAK1 catalytic kinase (JH1) domain, sequence (P23458 875-1153): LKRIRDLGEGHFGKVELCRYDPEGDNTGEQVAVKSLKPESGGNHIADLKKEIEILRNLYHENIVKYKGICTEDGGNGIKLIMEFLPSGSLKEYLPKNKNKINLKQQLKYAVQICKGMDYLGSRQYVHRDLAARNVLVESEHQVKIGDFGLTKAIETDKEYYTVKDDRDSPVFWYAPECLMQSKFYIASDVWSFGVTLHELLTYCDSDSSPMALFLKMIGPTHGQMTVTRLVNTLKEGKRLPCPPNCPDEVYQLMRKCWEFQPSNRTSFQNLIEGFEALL
Description: as §1, §2

human JAK3 catalytic kinase (JH1) domain, sequence (P52333 822-1111): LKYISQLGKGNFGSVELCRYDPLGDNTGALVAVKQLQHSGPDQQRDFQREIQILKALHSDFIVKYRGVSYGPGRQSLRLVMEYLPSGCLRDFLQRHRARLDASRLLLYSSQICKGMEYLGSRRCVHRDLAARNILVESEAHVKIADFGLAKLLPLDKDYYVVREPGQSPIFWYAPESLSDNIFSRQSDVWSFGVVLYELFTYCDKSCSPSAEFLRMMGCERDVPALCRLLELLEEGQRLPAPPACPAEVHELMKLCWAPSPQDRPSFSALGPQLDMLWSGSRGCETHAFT

Row | Compound | IC50 [1] | IC50 [2] | IC50 [3] | IC50 [4]
1 | O=C(C1CC(O)(C(F)(F)F)C1)N1C2CCC1CN(c1ncnn3cc(-c4cnn(C(F)F)c4)cc13)C2 (stereo not shown) [Example 36, (3-(6-(1-(difluoromethyl)-1H-pyrazol-4-yl)pyrrolo[2,1-f][1,2,4]triazin-4-yl)-3,8-diazabicyclo[3.2.1]octan-8-yl)(3-hydroxy-3-(trifluoromethyl)cyclobutyl)methanone trifluoroacetate] | 5840 nM | 7490 nM | 968 nM | 2200 nM
2 | O=C([C@@H]1CC1(F)F)N1C2CCC1CN(c1ncnn3cc(-c4cnn(C(F)F)c4)cc13)C2 [Example 3, ((S)-2,2-difluorocyclopropyl)(3-(6-(1-(difluoromethyl)-1H-pyrazol-4-yl)pyrrolo[2,1-f][1,2,4]triazin-4-yl)-3,8-diazabicyclo[3.2.1]octan-8-yl)methanone] | 6160 nM | 714 nM | 27.8 nM | 653 nM
3 | Cn1cc(-c2nc3c(N4CC5CCC(C4)N5C(=O)[C@@H]4CC4(F)F)ccnc3[nH]2)cn1 [Example 201, ((S)-2,2-difluorocyclopropyl)(3-(2-(1-methyl-1H-pyrazol-4-yl)-3H-imidazo[4,5-b]pyridin-7-yl)-3,8-diazabicyclo[3.2.1]octan-8-yl)methanone] | 164 nM | 9 nM | 1.5 nM | 14 nM
4 | COc1cc(-c2cc3c(N4CC5CCC(C4)N5C(=O)[C@@H]4C[C@H]4F)ncnn3c2)ccn1 [Example 89, ((1S,2R)-2-fluorocyclopropyl)(3-(6-(2-methoxypyridin-4-yl)pyrrolo[2,1-f][1,2,4]triazin-4-yl)-3,8-diazabicyclo[3.2.1]octan-8-yl)methanone] | 4240 nM | 856 nM | 28.2 nM | 236 nM
5 | O=C(C1CC1)N1C2CCC1CN(c1ccnn3cc(-c4cnn(C(F)F)c4)cc13)C2 [Example 16, cyclopropyl(3-(6-(1-(difluoromethyl)-1H-pyrazol-4-yl)pyrrolo[1,2-b]pyridazin-4-yl)-3,8-diazabicyclo[3.2.1]octan-8-yl)methanone] | 1040 nM | 257 nM | 13.8 nM | 264 nM
6 | CN1CCOC(c2nc3c(N4CC5CCC(C4)N5C(=O)[C@@H]4C[C@H]4F)ccnc3[nH]2)C1 (stereo partly drawn) [Example 218, ((1S,2R)-2-fluorocyclopropyl)(3-(2-(4-methylmorpholin-2-yl)-3H-imidazo[4,5-b]pyridin-7-yl)-3,8-diazabicyclo[3.2.1]octan-8-yl)methanone] | 10000 nM | 10000 nM | 783 nM | 2940 nM
7 | COc1cc(-c2cc3c(N4CC5CCC(C4)N5C(=O)[C@@H]4C[C@H]4F)ccnn3c2)ccn1 [Example 88, ((1S,2R)-2-fluorocyclopropyl)(3-(6-(2-methoxypyridin-4-yl)pyrrolo[1,2-b]pyridazin-4-yl)-3,8-diazabicyclo[3.2.1]octan-8-yl)methanone] | 604 nM | 46 nM | 1.9 nM | 23 nM
8 | COc1cnc(-c2cc3c(N4CC5CCC(C4)N5C(=O)[C@@H]4C[C@H]4F)ccnn3c2)cn1 [Example 124, ((1S,2R)-2-fluorocyclopropyl)(3-(6-(5-methoxypyrazin-2-yl)pyrrolo[1,2-b]pyridazin-4-yl)-3,8-diazabicyclo[3.2.1]octan-8-yl)methanone] | 7440 nM | 700 nM | 54.5 nM | 405 nM
9 | Cn1cc(-c2cc3c(N4CC5CCC(C4)N5C(=O)[C@@H]4C[C@H]4F)ccnn3c2)c(F)n1 [Example 118, (3-(6-(3-fluoro-1-methyl-1H-pyrazol-4-yl)pyrrolo[1,2-b]pyridazin-4-yl)-3,8-diazabicyclo[3.2.1]octan-8-yl)((1S,2R)-2-fluorocyclopropyl)methanone] | 502 nM | 28 nM | 1.8 nM | 92 nM
10 | O=C([C@@H]1CC1(F)F)N1C2CCC1CN(c1ccnn3cc(-c4cnn(C(F)F)c4)cc13)C2 [Example 21, ((S)-2,2-difluorocyclopropyl)(3-(6-(1-(difluoromethyl)-1H-pyrazol-4-yl)pyrrolo[1,2-b]pyridazin-4-yl)-3,8-diazabicyclo[3.2.1]octan-8-yl)methanone] | 565 nM | 28 nM | 1.4 nM | 39 nM
11 | Cc1cc(-c2cc3c(N4CC5CCC(C4)N5C(=O)[C@@H]4C[C@H]4F)ncnn3c2)on1 [Example 166] | 9260 nM | 1050 nM | 56 nM | 1160 nM
12 | Cc1cncc(-c2cc3c(N4CC5CCC(C4)N5C(=O)[C@@H]4C[C@H]4F)ccnn3c2)n1 [Example 130, ((1S,2R)-2-fluorocyclopropyl)(3-(6-(6-methylpyrazin-2-yl)pyrrolo[1,2-b]pyridazin-4-yl)-3,8-diazabicyclo[3.2.1]octan-8-yl)methanone] | 5420 nM | 674 nM | 52.8 nM | 806 nM
13 | Cc1c(-c2cc3c(N4CC5CCC(C4)N5C(=O)C4CC4)ncnn3c2)cnn1C [Example 168] | 7690 nM | 7850 nM | 317 nM | 5470 nM
14 | CN(C)c1cc(-c2cc3c(N4CC5CCC(C4)N5C(=O)[C@@H]4C[C@H]4F)ccnn3c2)cnn1 [Example 138, (3-(6-(6-(dimethylamino)pyridazin-4-yl)pyrrolo[1,2-b]pyridazin-4-yl)-3,8-diazabicyclo[3.2.1]octan-8-yl)((1S,2R)-2-fluorocyclopropyl)methanone] | 3930 nM | 395 nM | 13.8 nM | 57 nM
15 | COc1cc(-n2cc3nccc(N4CC5CCC(C4)N5C(=O)[C@@H]4C[C@H]4F)c3n2)ccn1 [Example 37, ((1S,2R)-2-fluorocyclopropyl)(3-(2-(2-methoxypyridin-4-yl)-2H-pyrazolo[4,3-b]pyridin-7-yl)-3,8-diazabicyclo[3.2.1]octan-8-yl)methanone] | 868 nM | 88 nM | 11 nM | 72 nM
16 | O=C(C1CC1)N1C2CCC1CN(c1ncnn3cc(-c4cnn(C5COC5)c4)cc13)C2 [Example 151] | 3380 nM | 4100 nM | 239 nM | 3300 nM
17 | N#CCC(=O)N1C2CCC1CN(c1ncnn3cc(-c4cnn(C(F)F)c4)cc13)C2 [Example 44, 3-(3-(6-(1-(difluoromethyl)-1H-pyrazol-4-yl)pyrrolo[2,1-f][1,2,4]triazin-4-yl)-3,8-diazabicyclo[3.2.1]octan-8-yl)-3-oxopropanenitrile] | 5390 nM | 4180 nM | 236 nM | 395 nM
18 | Cc1cc(-c2cc3c(N4CC5CCC(C4)N5C(=O)[C@@H]4C[C@H]4F)ccnn3c2)ccn1 [Example 100, ((1S,2R)-2-fluorocyclopropyl)(3-(6-(2-methylpyridin-4-yl)pyrrolo[1,2-b]pyridazin-4-yl)-3,8-diazabicyclo[3.2.1]octan-8-yl)methanone] | 756 nM | 43 nM | 2.5 nM | 26 nM
19 | Cn1cc(-c2nc3c(N4CC5CCC(C4)N5C(=O)C4CC4)ccnc3[nH]2)cn1 [Example 199, cyclopropyl(3-(2-(1-methyl-1H-pyrazol-4-yl)-3H-imidazo[4,5-b]pyridin-7-yl)-3,8-diazabicyclo[3.2.1]octan-8-yl)methanone] | 219 nM | 56 nM | 6.2 nM | 92 nM

— patent publication US20240360157A1, “TYK2 INHIBITORS” (BIOGEN MA INC., priority 2021, published 2024)
